The record followed here is patent US6869960B2, “N-substituted spiropiperidine compounds as ligands for ORL-1 receptor” (Pfizer Inc., priority 2002, dated 2005).

In this test the target is T1, human ORL1 receptor (Homo sapiens, UniProt P41146).
T1 construct: expressed in transfected cells; host or cells: HEK-293 cell membranes
Briefly: ORL1 receptor functional assay ([35S]GTPγS binding, nociceptin stimulated). As to conditions: at 10 nM nociceptin stimulation; human ORL1 receptor transfected HEK-293 cell membranes. In kind it is biochemical. The method, then:
IC50(ORL1-receptors)nM/IC50(mu-receptors)nM<1.0 ORL1 Receptor Functional Assay • The human ORL1 receptor transfected HEK-293 cell membranes are incubated with 400 pM [^35S]GTPγS, 10 or 50 nM nociceptin and various concentrations of test compounds in assay buffer (20 mM HEPES, 100 mM NaCl, 5 mM MgCl2, 1 mM EDTA, […], 1 mM DTT, pH7.4) containing 1.5 mg of wheat germ agglutinin-coated SPA beads for 60 or 90 min at 25° C. in a final volume of 200 μl. Basal binding is assessed in the absence of nociceptin and non-specific binding is defined by the addition of unlabelled […]. Membrane-bound radioactivity is detected by a Liquid Scintillation Counter. […] Analgesic Tests Tail Flick Test in Mice • The latency time to withdrawal f the tail from radiant heat stimulation is recorded before and after administration of test compounds. Cut-off time is set to 8 sec. Acetic Acid Writhing Test in Mice • Acetic acid saline solution of 0.7% (v/v) is injected intraperitoneally (0.16 ml/10 g body weight) to mice. Test compounds are administered before acetic acid injection. As soon as acetic acid injection, animals are placed in a 1 liter beaker and writhing is recorded for 15 min. Formalin Licking Test in Mice • Formalin-induced hind paw licking is initiated by a 20 micro liters subcutaneous injection of a 2% formaline solution into a hind paw of mice. […]
(GTPγS is a poorly hydrolysed GTP analogue; its binding reports G protein activation.)

T1 sequence (P41146 whole entry): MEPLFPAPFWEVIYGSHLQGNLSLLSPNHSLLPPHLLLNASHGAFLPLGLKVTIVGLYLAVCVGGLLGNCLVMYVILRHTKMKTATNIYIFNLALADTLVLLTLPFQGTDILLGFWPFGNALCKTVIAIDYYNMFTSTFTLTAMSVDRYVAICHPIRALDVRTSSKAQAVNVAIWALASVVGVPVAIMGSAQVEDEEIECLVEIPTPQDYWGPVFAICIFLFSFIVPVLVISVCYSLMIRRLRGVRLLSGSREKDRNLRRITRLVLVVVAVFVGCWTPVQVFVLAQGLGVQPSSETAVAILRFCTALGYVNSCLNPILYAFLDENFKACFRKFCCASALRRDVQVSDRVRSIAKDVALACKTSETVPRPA

As a reminder, the IC50 is the concentration at which inhibition is half-maximal. A low value points to higher potency. In turn, `O=C1COc2cccc3c2N1CC(CN1CCC2(CCc4ccccc42)CC1)C3` (centres unmarked) [Example 20, 6-(2,3-Dihydro-1′H-spiro[indene-1,4′piperidin]-1′-ylmethyl)-6,7-dihydro-5H-[1,4]oxazino[2,3,4-ij]quinolin-3(2H)-one] came in with an IC50 of 13 nM.

As for `CN1CC2(CCN(CC3Cc4cccc(O)c4NC3=O)CC2)c2ccccc21` (centres unmarked) [Example 31, 8-Hydroxy-3-[(1-methyl-1,2-dihydro-1′H-spiro[indole-3,4′-piperidin]-1′-yl)methyl]-3,4-dihydroquinolin-2(1H)-one], the IC50 turned out to be 13 nM.
